Patent US20200330456A1, “NOVEL APPLICATION OF GZD824 AND PHARMACEUTICALLY ACCEPTABLE SALTS THEREOF IN TREATING DISEASES” (HEALTHQUEST PHARMA INC., priority 2016, published 2020)

Assays:
NALM6 cells = experiment: Apoptosis kit (ANNEXIN V, PI) flow cytometry, NALM6; format: cell-based; settings: 24 hours, GZD824 vs KX2-391 vs HO-3867 vs DMSO
Protocol: 1.2 After treating NALM6 and SUPB15 cells respectively with GZD824 (3 μM, 1 μM) and DMSO of different concentrations for 24 hours, apoptosis was detected using an apoptosis kit (ANNEXIN V, PI). Please refer to FIG. 2 for the results. After treating the two types of cells NALM6 and SUPB15 respectively with GZD824 of different concentrations (3 μM/L, 1 μM/L) for 24 hours, the cells were stained with the apoptosis kit (ANNEXIN V, PI), and apoptosis was detected with flow cytometry.
5.3 After treating NALM6 cells with GZD824, SRC suppressor (KX2-391), STAT3 suppressor (HO-3867) or DMSO for 24 hours, apoptosis was detected by using the apoptosis kit (ANNEXIN V, PI). The ratio of ANNEXIN V positive cells was analyzed by statistical methods. […] For the experimental results, please refer to FIG. 15.

[1] = system: human primary leukemia cells from P #1 PDX mouse spleen; experiment: Apoptosis of human primary leukemia cells from P #1 PDX mouse spleen, with and without IGF-1; format: cell-based; settings: P #1 PDX spleen cells; GZD824 1 μM/L and IGF-1 10 ng/mL, 24 hours
Protocol: 6.2 Human primary leukemia cells were extracted from P #1 PDX mouse spleen and co-cultured with DMSO, GZD824 (1 μM/L), IGF-1 (10 ng/mL), or GZD824 (1 μM/L) and IGF-1 (10 ng/mL) for 24 hours. The ratios of ANNEXIN V positive cells were analyzed by statistical methods. […] Please refer to FIG. 17 for the experimental results.

Compound	ratio of apoptosis (ANNEXIN V positive cells), comparison of inhibitors (NALM6 cells)	effect of added IGF-1 on GZD824-induced apoptosis [1]
O=C(Cc1ccc(-c2ccc(OCCN3CCOCC3)cc2)cn1)NCc1ccccc1 [KX2-391, reference compound]	almost the same	
CC1(C)C=C(CN2C/C(=C\c3ccc(F)cc3)C(=O)/C(=C/c3ccc(F)cc3)C2)C(C)(C)N1O [HO-3867, reference compound]	almost the same	
IGF-1: cytokine IGF-1, added at 10 ng/mL		partly reverse the effect of GZD824 on apoptosis
